In ChEMBL document CHEMBL3885881, “DrugMatrix”:

Organism: Rattus norvegicus
Test: DrugMatrix - Regimen: Daily Repeat
Type: toxicity, organism-based, Sprague-Dawley
Parameters: regimen Daily Repeat, gender Male, age 6-8 weeks
Details: in vivo, po, route oral GAVAGE, […]; for ABSOLUTE BASOPHIL / ABSOLUTE EOSINOPHIL / ABSOLUTE LYMPHOCYTE / ABSOLUTE MONOCYTE / ABSOLUTE SEGMENTED NEUTROPHIL / BASOPHIL / EOSINOPHIL / ERYTHROCYTE COUNT / HEMATOCRIT / HEMOGLOBIN / LEUKOCYTE COUNT / LYMPHOCYTE / MEAN CORPUSCULAR HEMOGLOBIN / MEAN CORPUSCULAR HEMOGLOBIN CONCENTRATION / MEAN CORPUSCULAR VOLUME / MONOCYTE / NEUTROPHIL / NUCLEATED RED BLOOD CELLS / PLATELET COUNT: tissue Blood; for ALANINE AMINOTRANSFERASE / ALBUMIN / ALKALINE PHOSPHATASE / ASPARTATE AMINOTRANSFERASE / BLOOD UREA NITROGEN / CARBON DIOXIDE / CHLORIDE / CHOLESTEROL / CREATINE PHOSPHOKINASE / CREATININE / GLUCOSE / LACTATE DEHYDROGENASE / LIPASE / PHOSPHORUS / POTASSIUM / SODIUM / TOTAL BILIRUBIN / TOTAL PROTEIN / URIC ACID: tissue Plasma
[1] = 10 mg/kg, 72 h, dose level Low, time 3 day
[2] = 10 mg/kg, 120 h, dose level Low, time 5 day
[3] = 50 mg/kg, 72 h, dose level High, time 3 day
[4] = 50 mg/kg, 120 h, dose level High, time 5 day

CC(C)CC(N(C)C)C1(c2ccc(Cl)cc2)CCC1 (configuration not stated) [SIBUTRAMINE]
ABSOLUTE BASOPHIL [1]: 0 CELLS/uL | ABSOLUTE EOSINOPHIL [1]: 0 CELLS/uL | ABSOLUTE LYMPHOCYTE [1]: 16618.67 CELLS/uL | ABSOLUTE MONOCYTE [1]: 131.33 CELLS/uL | ABSOLUTE SEGMENTED NEUTROPHIL [1]: 1483.33 CELLS/uL | BASOPHIL [1]: 0% | EOSINOPHIL [1]: 0% | ERYTHROCYTE COUNT [1]: 5.37 x10E6/uL | HEMATOCRIT [1]: 34.23% | HEMOGLOBIN [1]: 13.53 G/DL | LEUKOCYTE COUNT [1]: 18.23 x10E3/uL | LYMPHOCYTE [1]: 91% | MEAN CORPUSCULAR HEMOGLOBIN [1]: 25.17 pg | MEAN CORPUSCULAR HEMOGLOBIN CONCENTRATION [1]: 39.53 G/DL | MEAN CORPUSCULAR VOLUME [1]: 63.67 fL | MONOCYTE [1]: 0.67% | NEUTROPHIL [1]: 8.33% | NUCLEATED RED BLOOD CELLS [1]: 0.33 /100WBC | PLATELET COUNT [1]: 1187.67 x10E3/uL | ALANINE AMINOTRANSFERASE [1]: 61.33 u/L | ALBUMIN [1]: 3.93 G/DL | ALKALINE PHOSPHATASE [1]: 368 u/L | ASPARTATE AMINOTRANSFERASE [1]: 88.33 u/L | BLOOD UREA NITROGEN [1]: 12 mg/dL | CARBON DIOXIDE [1]: 33 mmol/L | CHLORIDE [1]: 100.33 MEQ/L | CHOLESTEROL [1]: 70 mg/dL | CREATINE PHOSPHOKINASE [1]: 531.67 u/L | CREATININE [1]: 0.1 mg/dL | GLUCOSE [1]: 158.33 mg/dL | LACTATE DEHYDROGENASE [1]: 253.33 u/L | LIPASE [1]: 10.33 u/L | PHOSPHORUS [1]: 11.93 mg/dL | POTASSIUM [1]: 6.44 MEQ/L | SODIUM [1]: 140.57 MEQ/L | TOTAL BILIRUBIN [1]: 0.13 mg/dL | TOTAL PROTEIN [1]: 5.37 G/DL | URIC ACID [1]: 1.27 mg/dL | ABSOLUTE BASOPHIL [2]: 0 CELLS/uL | ABSOLUTE EOSINOPHIL [2]: 0 CELLS/uL | ABSOLUTE LYMPHOCYTE [2]: 12939.67 CELLS/uL | ABSOLUTE MONOCYTE [2]: 411.33 CELLS/uL | ABSOLUTE SEGMENTED NEUTROPHIL [2]: 1515.67 CELLS/uL | BASOPHIL [2]: 0% | EOSINOPHIL [2]: 0% | ERYTHROCYTE COUNT [2]: 5.44 x10E6/uL | HEMATOCRIT [2]: 33.73% | HEMOGLOBIN [2]: 13.47 G/DL | LEUKOCYTE COUNT [2]: 14.87 x10E3/uL | LYMPHOCYTE [2]: 86.67% | MEAN CORPUSCULAR HEMOGLOBIN [2]: 24.83 pg | MEAN CORPUSCULAR HEMOGLOBIN CONCENTRATION [2]: 39.93 G/DL | MEAN CORPUSCULAR VOLUME [2]: 62.2 fL | MONOCYTE [2]: 2.67% | NEUTROPHIL [2]: 10.67% | NUCLEATED RED BLOOD CELLS [2]: 0 /100WBC | PLATELET COUNT [2]: 1072.33 x10E3/uL | ALANINE AMINOTRANSFERASE [2]: 55.67 u/L | ALBUMIN [2]: 4.07 G/DL | ALKALINE PHOSPHATASE [2]: 363.67 u/L | ASPARTATE AMINOTRANSFERASE [2]: 79.33 u/L | BLOOD UREA NITROGEN [2]: 14 mg/dL | CARBON DIOXIDE [2]: 34.33 mmol/L | CHLORIDE [2]: 101.33 MEQ/L | CHOLESTEROL [2]: 72 mg/dL | CREATINE PHOSPHOKINASE [2]: 211.33 u/L | CREATININE [2]: 0.23 mg/dL | GLUCOSE [2]: 148.67 mg/dL | LACTATE DEHYDROGENASE [2]: 269 u/L | LIPASE [2]: 11 u/L | PHOSPHORUS [2]: 10.8 mg/dL | POTASSIUM [2]: 6.14 MEQ/L | SODIUM [2]: 143.2 MEQ/L | TOTAL BILIRUBIN [2]: 0.17 mg/dL | TOTAL PROTEIN [2]: 5.57 G/DL | URIC ACID [2]: 1.07 mg/dL | ABSOLUTE BASOPHIL [3]: 0 CELLS/uL | ABSOLUTE EOSINOPHIL [3]: 0 CELLS/uL | ABSOLUTE LYMPHOCYTE [3]: 12941.33 CELLS/uL | ABSOLUTE MONOCYTE [3]: 144.33 CELLS/uL | ABSOLUTE SEGMENTED NEUTROPHIL [3]: 2147.67 CELLS/uL | BASOPHIL [3]: 0% | EOSINOPHIL [3]: 0% | ERYTHROCYTE COUNT [3]: 5.65 x10E6/uL | HEMATOCRIT [3]: 35.8% | HEMOGLOBIN [3]: 14.6 G/DL | LEUKOCYTE COUNT [3]: 15.23 x10E3/uL | LYMPHOCYTE [3]: 85.33% | MEAN CORPUSCULAR HEMOGLOBIN [3]: 25.83 pg | MEAN CORPUSCULAR HEMOGLOBIN CONCENTRATION [3]: 40.8 G/DL | MEAN CORPUSCULAR VOLUME [3]: 63.37 fL | MONOCYTE [3]: 1% | NEUTROPHIL [3]: 13.67% | NUCLEATED RED BLOOD CELLS [3]: 0 /100WBC | PLATELET COUNT [3]: 1122.33 x10E3/uL | ALANINE AMINOTRANSFERASE [3]: 51.33 u/L | ALBUMIN [3]: 3.67 G/DL | ALKALINE PHOSPHATASE [3]: 417 u/L | ASPARTATE AMINOTRANSFERASE [3]: 96 u/L | BLOOD UREA NITROGEN [3]: 13 mg/dL | CARBON DIOXIDE [3]: 31.67 mmol/L | CHLORIDE [3]: 102.33 MEQ/L | CHOLESTEROL [3]: 68.67 mg/dL | CREATINE PHOSPHOKINASE [3]: 259.67 u/L | CREATININE [3]: 0.14 mg/dL | GLUCOSE [3]: 156.33 mg/dL | LACTATE DEHYDROGENASE [3]: 181 u/L | LIPASE [3]: 10 u/L | PHOSPHORUS [3]: 11.27 mg/dL | POTASSIUM [3]: 5.99 MEQ/L | SODIUM [3]: 144.97 MEQ/L | TOTAL BILIRUBIN [3]: 0.17 mg/dL | TOTAL PROTEIN [3]: 5.37 G/DL | URIC ACID [3]: 1.3 mg/dL | ABSOLUTE BASOPHIL [4]: 0 CELLS/uL | ABSOLUTE EOSINOPHIL [4]: 0 CELLS/uL | ABSOLUTE LYMPHOCYTE [4]: 16000.33 CELLS/uL | ABSOLUTE MONOCYTE [4]: 0 CELLS/uL | ABSOLUTE SEGMENTED NEUTROPHIL [4]: 833 CELLS/uL | BASOPHIL [4]: 0% | EOSINOPHIL [4]: 0% | ERYTHROCYTE COUNT [4]: 5.75 x10E6/uL | HEMATOCRIT [4]: 36.37% | HEMOGLOBIN [4]: 14.3 G/DL | LEUKOCYTE COUNT [4]: 16.83 x10E3/uL | LYMPHOCYTE [4]: 95% | MEAN CORPUSCULAR HEMOGLOBIN [4]: 24.9 pg | MEAN CORPUSCULAR HEMOGLOBIN CONCENTRATION [4]: 39.33 G/DL | MEAN CORPUSCULAR VOLUME [4]: 63.37 fL | MONOCYTE [4]: 0% | NEUTROPHIL [4]: 5% | NUCLEATED RED BLOOD CELLS [4]: 0 /100WBC | PLATELET COUNT [4]: 1265 x10E3/uL | ALANINE AMINOTRANSFERASE [4]: 57.33 u/L | ALBUMIN [4]: 4.07 G/DL | ALKALINE PHOSPHATASE [4]: 391.67 u/L | ASPARTATE AMINOTRANSFERASE [4]: 95.67 u/L | BLOOD UREA NITROGEN [4]: 14.67 mg/dL | CARBON DIOXIDE [4]: 30 mmol/L | CHLORIDE [4]: 102 MEQ/L | CHOLESTEROL [4]: 56 mg/dL | CREATINE PHOSPHOKINASE [4]: 585 u/L | CREATININE [4]: 0.11 mg/dL | GLUCOSE [4]: 164 mg/dL | LACTATE DEHYDROGENASE [4]: 175.33 u/L | LIPASE [4]: 9.67 u/L | PHOSPHORUS [4]: 12.43 mg/dL | POTASSIUM [4]: 6.27 MEQ/L | SODIUM [4]: 142.13 MEQ/L | TOTAL BILIRUBIN [4]: 0.1 mg/dL | TOTAL PROTEIN [4]: 5.6 G/DL | URIC ACID [4]: 1.73 mg/dL
